Experiments:
HT-29 = test: Inhibition of cells growth by colorimetric assay (SRB), HT-29; format: cell-based; settings: SRB, 48 hours exposure; for GI50 / LC50 (concentration for 50% cell killing): Homo sapiens, HT-29, 48 h; for TGI HT-29 / GI50: HT-29; for GI50: read-out: GI50 HT-29; for LC50 (concentration for 50% cell killing): read-out: LC50 HT-29, HT-29
Outline: (§1)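 Using sulforhodamine B, cell growth and viability are quantified after a 48 h drug exposure of cells maintained in RPMI 1640/10% FBS at 37 °C, 5% CO2. Concentrations span 10 to 10^−8 μg/ml; optical density is read at 490 nm.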

SW620 = test: Inhibition of cells growth by colorimetric assay (SRB), SW620; format: cell-based; settings: for LC50 / GI50: Homo sapiens; for LC50: SW-620, 48 h, read-out: LC50 SW-620; for GI50 / TGI SW-620: SW-620, SRB, 48 hours exposure; for GI50: read-out: GI50 SW-620
Experimental: (§2) 2°.—Inhibition of Cells Growth by Colorimetric Assay.
(§3) A colorimetric type of assay, using sulforhodamine B (SRB) reaction has been adapted for a quantitative measurement of cell growth and viability [following the technique described by Philip Skehan, et al. (1990), New colorimetric cytotoxicity assay for anticancer drug screening, J. Natl. Cancer Inst., 82:1107-1112]
(§4) This form of the assay employs 96 well cell culture microplates of 9 mm diameter (Faircloth, 1988; Mosmann, 1983). Most of the cell lines are obtained from American Type Culture Collection (ATCC) derived from different human cancer types.
(§5) Cells are maintained in RPMI 1640 10% FBS, supplemented with 0.1 g/l penicillin and 0.1 g/l streptomycin sulfate and then incubated at 37° C., 5% CO2 and 98% humidity. For the experiments, cells were harvested from subconfluent cultures using trypsin and resuspended in fresh medium before plating.
(§6) Cells are seeded in 96 well microtiter plates, at 5×10^3 cells per well in aliquots of 195 μl medium, and they are allowed to attach to the plate surface by growing in drug free medium for 18 hours. Afterward, samples are added in aliquots of 5 μl in a ranging from 10 to 10^−8 μg/ml, dissolved in DMSO/EtOH/PBS (0.5:0.5:99). After 48 hours exposure, the antitumor effect are measured by the SRB methodology: cells are fixed by adding 50 μl of cold 50% (wt/vol) trichloroacetic acid (TCA) and incubating for 60 minutes at 4° C. Plates are washed with deionized water and dried. One hundred μl of SRB solution (0.4% wt/vol in 1% acetic acid) is added to each microtiter well and incubated for 10 minutes at room temperature. Unbound SRB is removed by washing with 1% acetic acid. Plates are air dried and bound stain is solubilized with Tris buffer. Optical densities are read on a automated spectrophotometric plate reader at a single wavelength of 490 nm.
(§7) The values for mean+/−SD of data from triplicate wells are calculated. Some parameters for cellular responses can be calculated: GI=growth inhibition, TGI=total growth inhibition (cytostatic effect) and LC=cell killing (cytotoxic effect).
(§8) Obtained results may predict the usefulness of a certain drug as a potential cancer treatment. For this technique, compounds which show GI50 values smaller than 10 μg/ml are selected to continue with further studies. GI50's data allow to predict that not only could a drug be cystostatic, but also it could have a potential in terms of tumor reduction.

MCF-7 = test: Inhibition of cells growth by colorimetric assay (SRB), MCF-7; format: cell-based; settings: for CC50 / GI50: Homo sapiens; for CC50: MCF7, 48 h, read-out: LC50 MCF; for GI50: MCF7, read-out: GI50 MCF; for GI50 / TGI MCF: MCF, SRB, 48 hours exposure
Experimental: as §2, §3, §4, §5, §6, §7, §8

MDA-MB-231 = test: Inhibition of cells growth by colorimetric assay (SRB), MDA-MB-231; format: cell-based; settings: for CC50 / GI50: Homo sapiens; for CC50: MDA-MB-231, 48 h, read-out: LC50 MB-231; for GI50: MDA-MB-231, read-out: GI50 MB-231; for GI50 / TGI MB-231: MB-231, SRB, 48 hours exposure
Experimental: as §2, §3, §4, §5, §6, §7, §8

A-498 = test: Inhibition of cells growth by colorimetric assay (SRB), A-498; format: cell-based; settings: for TGI A-498 / GI50: SRB, 48 hours exposure, A-498; for LC50 / GI50: Homo sapiens; for LC50: A498, 48 h, read-out: LC50 A-498; for GI50: A498, read-out: GI50 A-498
Experimental: as §2, §3, §4, §5, §6, §7, §8

SK-MEL-28 = test: Inhibition of cells growth by colorimetric assay (SRB), SK-MEL-28; format: cell-based; settings: SRB, 48 hours exposure; for GI50 / CC50: Homo sapiens, SK-MEL-28, 48 h; for GI50 / TGI MEL-28: MEL-28; for GI50: read-out: GI50 MEL-28; for CC50: read-out: LC50 MEL-28, MEL-28
Outline: as §1

DU-145 = test: Inhibition of cells growth by colorimetric assay (SRB), DU-145; format: cell-based; settings: SRB, 48 hours exposure; for GI50 / CC50: Homo sapiens, DU-145, 48 h; for TGI DU-145 / GI50: DU-145; for GI50: read-out: GI50 DU-145; for CC50: read-out: LC50 DU-145, DU-145
Outline: as §1

A-549 = test: Inhibition of cells growth by colorimetric assay (SRB), A-549; format: cell-based; settings: SRB, 48 hours exposure; for GI50 / LC50 (concentration for 50% cell killing): Homo sapiens, A549, 48 h; for TGI A-549 / GI50: A-549; for GI50: read-out: GI50 A-549; for LC50 (concentration for 50% cell killing): read-out: LC50 A-549, A-549
Outline: as §1

Text for Heart: (§9) Toxicity was asssessed by the methods reported in Toxicology in Vitro, 15 (2001) 571-577, J. Luber Narod et al.: “Evaluation of the use of in vitro methodolodies as tools for screening new compounds for potential in vivo toxicity”.
Text for Kidney: as §9
Text for Liver: as §9
Text for Myelo: as §9
Text for Skeletal: as §9

SMILES: COc1cc2c(cc1OC(=O)CCc1ccccc1)CCN[C@]21CS[C@@H]2c3c(OC(C)=O)c(C)c4c(c3[C@H](COC1=O)N1C2[C@H]2c3c(cc(C)c(OC)c3O)C[C@@H]([C@@H]1O)N2C)OCO4 (some centres unmarked) [Compound 72]
- TGI HT-29 (HT-29): 7.83E-09
- GI50 (HT-29): 2.24 nM
- LC50 (concentration for 50% cell killing) (HT-29): 11.2 nM
- Toxicity Data Myelo (Myelo): 2.15E-08
- LC50 (SW620): 11.2 nM
- GI50 (SW620): 2.24 nM
- TGI SW-620 (SW620): 3.36E-09
- CC50 (MCF-7): 11.2 nM
- GI50 (MCF-7): 2.24 nM
- TGI MCF (MCF-7): 4.47E-09
- Toxicity Data Skeletal (Skeletal): 1.32E-08
- CC50 (MDA-MB-231): 11.2 nM
- GI50 (MDA-MB-231): 2.24 nM
- TGI MB-231 (MDA-MB-231): 3.36E-09
- TGI A-498 (A-498): 4.47E-09
- LC50 (A-498): 11.2 nM
- GI50 (A-498): 2.24 nM
- Toxicity Data Heart (Heart): 3.78E-08
- GI50 (SK-MEL-28): 2.24 nM
- CC50 (SK-MEL-28): 7.83 nM
- TGI MEL-28 (SK-MEL-28): 3.36E-09
- TGI DU-145 (DU-145): 3.36E-09
- GI50 (DU-145): 2.24 nM
- CC50 (DU-145): 8.95 nM
- TGI A-549 (A-549): 3.36E-09
- GI50 (A-549): 1.12 nM
- LC50 (concentration for 50% cell killing) (A-549): 7.83 nM
- Toxicity Data Liver (Liver): 1.55E-08
- Toxicity Data Kidney (Kidney): 1.85E-08

SMILES: COc1cc2c(cc1OC(=O)CCCl)CCN[C@]21CS[C@@H]2c3c(OC(C)=O)c(C)c4c(c3[C@H](COC1=O)N1C2[C@H]2c3c(cc(C)c(OC)c3O)C[C@@H]([C@@H]1O)N2C)OCO4 (some centres unmarked) [Compound 73]
- TGI HT-29 (HT-29): 7.04E-09
- GI50 (HT-29): 0.939 nM
- LC50 (concentration for 50% cell killing) (HT-29): 10.6 nM
- LC50 (SW620): 9.39 nM
- GI50 (SW620): 0.352 nM
- TGI SW-620 (SW620): 1.17E-09
- CC50 (MCF-7): 11.7 nM
- GI50 (MCF-7): 0.704 nM
- TGI MCF (MCF-7): 3.52E-09
- CC50 (MDA-MB-231): 1.17 nM
- GI50 (MDA-MB-231): 0.235 nM
- TGI MB-231 (MDA-MB-231): 4.69E-11
- TGI A-498 (A-498): 7.04E-10
- LC50 (A-498): 3.52 nM
- GI50 (A-498): 0.352 nM
- GI50 (SK-MEL-28): 0.822 nM
- CC50 (SK-MEL-28): 3.52 nM
- TGI MEL-28 (SK-MEL-28): 9.39E-10
- TGI DU-145 (DU-145): 3.52E-10
- GI50 (DU-145): 0.235 nM
- CC50 (DU-145): 0.939 nM
- TGI A-549 (A-549): 2.35E-09
- GI50 (A-549): 0.352 nM
- LC50 (concentration for 50% cell killing) (A-549): 5.87 nM
